Consider two molecules from patent publication US20150031554A1, “EXTRACELLULAR TELOMERE ASSAY” (The UAB Research Foundation, priority 2012, published 2015).

The subject of assay [1] is U373, a human brain cancer cell line. Kind of assay: Extracellular telomere release into conditioned media (qPCR). In kind it is cell-based. The note with it: in response to doxorubicin treatment (FIG. 2A). How it is done: (§1) The samples to be tested were centrifuged at 1200×g for 6 minutes to remove residual cells. The supernatant was removed and centrifuged at 12,000× for 12 minutes to remove cellular debris. DNA was isolated from the final supernatant using a Qiagen DNA isolation kit. The DNA concentration of each sample was determined with the highly sensitive pico-green fluorometric assay (Invitrogen; Carlsbad, Calif.).
(§2) The obtained purified cell-free DNA was assayed for extracellular telomere sequences. Extracellular telomeres were measured using quantitative PCR (qPCR) with the widely accepted method of Cawthon (“Telomere measurement by quantitative PCR,” Nucleic Acids Research, 30:e47 (2002)). Other DNA sequences (actin, BRCA 1, alpha satellite DNA, and Alu repeats) were analyzed using published primers and conditions. Normal human genomic DNA (Roche; Basel, Switzerland) was used to create a telomere qPCR standard curve for the clinical specimens. For mouse standard curves, normal mouse genomic DNA isolated from murine peripheral blood cells was used.

Assay [2] relates to D54, a human brain cancer cell line. The assay is described as above. In kind it is cell-based. The note with it: in response to doxorubicin treatment (FIG. 2B). The procedure:
as §1, §2

For assay [3], the system named is human MDA-MB-23 1 breast cancer cells. Kind of assay: Extracellular telomere release into cell-free conditioned media (qPCR). In kind it is cell-based. The procedure:
as §1, §2
Background: Quantitative PCR measures a nucleic acid by following its amplification.

The subject of the next assay is G-quadruplex. The note with it: versus duplex, single strand, and hairpins; method of Balasubramanian et al.; cited from earlier work.

Consider `COc1cccc2c1C(=O)c1c(O)c3c(c(O)c1C2=O)C[C@@](O)(C(=O)CO)C[C@@H]3O[C@H]1C[C@H](N)[C@H](O)[C@H](C)O1` [doxorubicin], for which the extracellular telomere release result is recorded as “extracellular telomere release” in assay [1]; “extracellular telomere release” in assay [2]; “specifically released” in assay [3] (doxorubicin 10^−5 M, indicated times, Alu and alpha satellite sequences as controls (FIG. 1)). Also, in assay [3] (qPCR, compared with untreated cells or cells subjected to hypoxia, 2 independent experiments (FIG. 5)), the “telomere enrichment in cell-free conditioned media” value was “highly enriched”.

As to `NCCOc1cc(C(=O)Nc2cc(OCCN)c3ccccc3n2)nc(C(=O)Nc2cc(OCCN)c3ccccc3n2)c1` [compound 2, pyridostatin], in the assay on G-quadruplex, the selectivity of capture result was “selective for G-quadruplex capture over other DNA structural motifs”.
